Data reported in patent EP0044212B1, “Herbicidal o-alkylsulfonyloxy- and o-alkylsulfonylamino-benzenesulfonamides” (E.I. DU PONT DE NEMOURS AND COMPANY, priority 1980, dated 1982).

Tests used:
Experiment in all cases: Test B pre-emergence on Fallsington silt loam
Crabgrass = type: in vivo, Digitaria sanguinalis; parameters: scale not given here; settings: 28 days
Description: (§1) Two plastic bulb pans were filled with fertilized and limed Fallsington silt loam soil. One pan was planted with corn, sorghum, Kentucky bluegrass and several grassy weeds. The other pan was planted with cotton, soybeans, purple nutsedge (Cyperus rotundus), and several broadleaf weeds. The following grassy and broadleaf weeds were planted: crabgrass (Digitaria sanguinalis), barnyardgrass (Echinochloa crusgalli), wild oats (Avena fatua), johnsongrass (Sorghum halepense), dallisgrass (Paspalum dilatatum), giant foxtail (Setaria faberii), cheatgrass (Bromus secalinus), mustard (Brassica arvensis), cocklebur (Xanthium pensylvanicum), pigweed (Amaranthus retroflexus), morningglory (Ipomoea hederacea), cassia (Cassia tora), teaweed (Sida spinosa), velvetleaf (Abutilon theophrasti), and jimsonweed (Datura stramonium). A 12.5 cm diameter plastic pot was also filed with prepared soil and planted with rice and wheat. Another 12.5 cm pot was planted with sugarbeets. The above four containers were treated pre- emergence with several test compounds within the scope of the invention.
(§2) Twenty-eight days after treatment, the plants were evaluated and visually rated for response to the chemical treatments utilizing the rating system described previously for Test A. The data are summarized in Table B.

Barnyardgrass = type: in vivo, Echinochloa crusgalli; settings: 0.06 kg/ha, 28 days
Description: as §1, §2

Wild Oats = type: in vivo, Avena fatua; parameters: scale not given here; settings: 28 days
Description: as §1, §2

Dallisgrass = type: in vivo, Paspalum dilatatum; parameters: scale not given here; settings: 28 days
Description: as §1, §2

Ky. bluegrass = type: in vivo, Kentucky bluegrass; parameters: scale not given here; settings: 28 days
Description: as §1, §2

Cheatgrass = type: in vivo, Bromus secalinus; settings: 28 days
Description: as §1, §2

Corn = type: in vivo; parameters: scale not given here; settings: 28 days
Description: as §1, §2

Wheat = type: in vivo; parameters: scale not given here; settings: 28 days
Description: as §1, §2

Nutsedge = type: in vivo, Cyperus rotundus; settings: 0.06 kg/ha, 28 days
Description: as §1, §2

Morningglory = type: in vivo, Ipomoea hederacea; settings: 0.06 kg/ha, 28 days
Description: as §1, §2

Cassia = type: in vivo, Cassia tora; settings: 0.06 kg/ha, 28 days
Description: as §1, §2

Soybean = type: in vivo, soybeans; settings: 0.06 kg/ha, 28 days
Description: as §1, §2

`CCCS(=O)(=O)Oc1ccccc1S(=O)(=O)NC(=O)Nc1nc(OC)cc(OC)n1` [Compound 36, N-[(4,6-dimethoxypropimidin-2-yl)aminocarbonyl]-2-hydroxybenzenesulfonamide, 1-propanesulfonate] was tested, and the Crabgrass response rating (Crabgrass; 0.06 kg/ha) was 2G, the Crabgrass response rating (Crabgrass; 0.25 kg/ha) was 4G and the Barnyardgrass response rating (Barnyardgrass) was 4G. For the same compound, the “Wild Oats response rating” value (Wild Oats; 0.06 kg/ha) was 4G, the “Wild Oats response rating” value (Wild Oats; 0.25 kg/ha) was 4G and the Dallisgrass response rating (Dallisgrass; 0.06 kg/ha) was 4G. For the same compound, the Dallisgrass response rating (Dallisgrass; 0.25 kg/ha) was 5G, the “Ky. bluegrass response rating” value (Ky. bluegrass; 0.06 kg/ha) was 6G and the “Ky. bluegrass response rating” value (Ky. bluegrass; 0.25 kg/ha) was 7G. For the same compound, the Cheatgrass response rating (Cheatgrass; 0.06 kg/ha) was 6G, the Cheatgrass response rating (Cheatgrass; 0.25 kg/ha) was 7G and the Corn response rating (Corn; 0.06 kg/ha) was 3G. For the same compound, the Corn response rating (Corn; 0.25 kg/ha) was 4G, the Wheat response rating (Wheat; 0.06 kg/ha) was 0 and the Wheat response rating (Wheat; 0.25 kg/ha) was 0. For the same compound, the Nutsedge response rating (Nutsedge) was 7G, the Morningglory response rating (Morningglory) was 4G and the Cassia response rating (Cassia) was 6G. For the same compound, the Soybean response rating (Soybean) was 2G.
